Measured values: PubChem BioAssay (NCI)
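Five concentrations, 48 hours, 96-well plates. At the TGI there is no net growth.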

What was measured:
Assay in all cases: growth of human tumour cells (NCI), 48 h
SF-539 CNS = test system: SF-539 CNS
NCI-H460 lung = test system: NCI-H460 lung
A549 NSCLC = test system: A549 NSCLC
786-0 renal = test system: 786-0 renal
EKVX NSCLC = test system: EKVX NSCLC
SN12C renal = test system: SN12C renal
PC-3 prostate = test system: PC-3 prostate
NCI/ADR-RES ovarian = test system: NCI/ADR-RES ovarian
HCT-15 colon = test system: HCT-15 colon
SK-MEL-28 melanoma = test system: SK-MEL-28 melanoma
HT29 colon = test system: HT29 colon
SR leukemia = test system: SR leukemia
COLO 205 colon = test system: COLO 205 colon
A498 renal = test system: A498 renal
UACC-257 melanoma = test system: UACC-257 melanoma
M14 melanoma = test system: M14 melanoma
U251 CNS = test system: U251 CNS
CAKI-1 renal = test system: CAKI-1 renal

Row | Structure (SMILES) | TGI (SF-539 CNS) | TGI (NCI-H460 lung) | TGI (A549 NSCLC) | TGI (786-0 renal) | TGI (EKVX NSCLC) | TGI (SN12C renal) | TGI (PC-3 prostate) | TGI (NCI/ADR-RES ovarian) | TGI (HCT-15 colon) | TGI (SK-MEL-28 melanoma) | TGI (HT29 colon) | TGI (SR leukemia) | TGI (COLO 205 colon) | TGI (A498 renal) | TGI (UACC-257 melanoma) | TGI (M14 melanoma) | TGI (U251 CNS) | TGI (CAKI-1 renal)
1 | COc1cc(COC(=O)N2CCCCC2C(=O)O)c([N+](=O)[O-])cc1OC (stereo not drawn) | > 100 µM | > 100 µM | > 100 µM | > 100 µM | > 100 µM | > 100 µM | > 100 µM | > 100 µM | > 100 µM | > 100 µM | > 100 µM | > 100 µM | > 100 µM | > 100 µM | > 100 µM | > 100 µM | > 100 µM | 
2 | CC1CC(=O)N2CCCNC2=C1C#N (stereo not drawn) | > 100 µM | > 100 µM | > 100 µM | > 100 µM | > 100 µM | > 100 µM | > 100 µM | > 100 µM | > 100 µM | > 100 µM | > 100 µM | > 100 µM | > 100 µM |  | > 100 µM | > 100 µM | > 100 µM | > 100 µM
3 | CCOC(=O)C1(Cc2ccccc2)Cc2cc3c(cc2C1=O)CCC3 (stereo not drawn) | > 100 µM | > 100 µM | > 100 µM | > 100 µM | > 100 µM | > 100 µM | > 100 µM | > 100 µM | > 100 µM | > 100 µM | > 100 µM | > 100 µM | > 100 µM | > 100 µM | > 100 µM | > 100 µM | > 100 µM | 
4 | CCOC(=O)C1=C(OS(=O)(=O)C(F)(F)F)CCCC1 | > 100 µM | > 100 µM | > 100 µM | > 100 µM | > 100 µM |  | > 100 µM | > 100 µM | > 100 µM | > 100 µM | > 100 µM | > 100 µM | > 100 µM | > 100 µM | > 100 µM | > 100 µM | > 100 µM | > 100 µM
5 | Cc1cc(=O)oc2c(CNC(C)C(=O)O)c(O)ccc12 (stereo not drawn) | > 100 µM | > 100 µM | > 100 µM | > 100 µM | > 100 µM | > 100 µM | > 100 µM | > 100 µM | > 100 µM | > 100 µM | > 100 µM | > 100 µM | > 100 µM |  | > 100 µM | > 100 µM | > 100 µM | > 100 µM
6 | Cc1nc2c(O)cccc2c(=O)[nH]1 | > 1000 µM | > 1000 µM | > 1000 µM | > 1000 µM | > 1000 µM | > 1000 µM | > 1000 µM | > 1000 µM | > 1000 µM | > 1000 µM | > 1000 µM | > 1000 µM |  | > 1000 µM | > 1000 µM | > 1000 µM | > 1000 µM | > 1000 µM
7 | O=C(Cn1c(C(=O)/C=C/c2ccco2)nc2ccccc21)c1ccc(Cl)cc1 | > 100 µM | 27.2 µM | > 100 µM | 31.4 µM |  | 61.5 µM | 44.2 µM | 30.4 µM | 99.4 µM | > 100 µM | 92.6 µM | 16.4 µM | 49.2 µM | 44.4 µM | 51.9 µM | 58.2 µM | > 100 µM | 
